Drawing on publication PMC4558140, “Irreversible dual inhibitory mode: the novel Btk inhibitor PLS-123 demonstrates promising anti-tumor activity in human B-cell lymphoma” (Oncotarget, 2015), this text covers IC50 for 1 compound.

The assay addresses Btk (Homo sapiens, UniProt Q06187). The assay is described as follows: crystal structure of human Btk in complex with PLS-123 (Figure 1B); IC50 also stated; Western blot of p-Tyr223/p-Tyr551 Btk in cells. It counts as binding. The source says:
crystal structure of human Btk in complex with PLS-123 (Figure 1B); IC50 also stated; Western blot of p-Tyr223/p-Tyr551 Btk in cells on Btk | Crystal structure of the human Btk in complex with PLS-123.

Btk, sequence (Q06187 2-659): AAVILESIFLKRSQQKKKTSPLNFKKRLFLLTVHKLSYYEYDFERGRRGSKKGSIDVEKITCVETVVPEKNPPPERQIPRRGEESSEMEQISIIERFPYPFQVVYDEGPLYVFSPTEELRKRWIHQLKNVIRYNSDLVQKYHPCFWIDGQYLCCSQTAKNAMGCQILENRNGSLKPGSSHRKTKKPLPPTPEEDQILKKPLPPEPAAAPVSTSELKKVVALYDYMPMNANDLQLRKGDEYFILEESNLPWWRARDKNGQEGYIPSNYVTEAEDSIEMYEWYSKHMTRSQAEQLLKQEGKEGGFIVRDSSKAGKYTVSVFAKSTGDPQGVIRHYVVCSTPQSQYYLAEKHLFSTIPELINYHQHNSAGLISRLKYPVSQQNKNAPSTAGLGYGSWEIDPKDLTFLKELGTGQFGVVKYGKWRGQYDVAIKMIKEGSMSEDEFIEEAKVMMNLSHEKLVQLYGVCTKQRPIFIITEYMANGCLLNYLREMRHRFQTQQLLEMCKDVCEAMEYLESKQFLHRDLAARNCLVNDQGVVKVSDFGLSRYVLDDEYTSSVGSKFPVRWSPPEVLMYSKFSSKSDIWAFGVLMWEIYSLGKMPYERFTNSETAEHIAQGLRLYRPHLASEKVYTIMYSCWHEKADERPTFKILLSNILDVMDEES

`C=CC(=O)NCC(=O)Nc1cccc(Nc2ncc(NC(=O)c3cc(NC(=O)c4cccc(C(F)(F)F)c4)ccc3C)cn2)c1` [PLS-123] yielded an IC50 of less than 5 nM.
